Source: US5567692A, “9-[(substituted glycyl) amido)]-6-demethyl-6-deoxytetracyclines” (priority 1995, dated 1996)
Structures can show the parent of a compound that is named as a salt.

How the values were obtained:
[1] = test system: X. maltophilia NEMC 87210; test: MIC, agar dilution; type: cell-based; conditions: X. maltophilia NEMC 87210; dihydrochloride
[2] = test system: S. aureus UBMS 88-7 Tet K; test: microbe, parasite or virus in culture; type: cell-based; conditions: dihydrochloride
Clostridium spp. = test: MIC range, recent clinical and veterinary isolates; type: cell-based; conditions: 18 h, [9] isolates
E. coli UBMS 88-1 Tet B = test: microbe, parasite or virus in culture; type: cell-based; conditions: E. coli UBMS 88-1 Tet B
[3] = test system: Staphylococcus Coagulase-negative, (methicillin-susceptible); test: MIC range, recent clinical and veterinary isolates; type: cell-based; conditions: 18 h, [14] isolates
Listeria monocytogenes = test: MIC range, recent clinical and veterinary isolates; type: cell-based; conditions: 18 h, [8] isolates
[4] = test system: S. aureus UBMS 90-2 Tet M; test: microbe, parasite or virus in culture; type: cell-based; conditions: S. aureus UBMS 90-2 Tet M; dihydrochloride
E. coli J3272 Tet D = test: microbe, parasite or virus in culture; type: cell-based; conditions: dihydrochloride
Morganella morganii = test: MIC range, recent clinical and veterinary isolates; type: cell-based; conditions: 18 h, [16] isolates
[5] = test system: Escherichia coli UBMS 90-4 (Tet M); test: Acute lethal infection in mice, E. coli UBMS 90-4; conditions: in Mus musculus, iv, 168 h
[6] = test system: Staphylococcus aureus, (methicillin-resistant); test: MIC range, recent clinical and veterinary isolates; type: cell-based; conditions: 18 h, [15] isolates
S. aureus UBMS 88-4 = test: MIC, agar dilution; type: cell-based; conditions: Staphylococcus aureus, UBMS884, 18 h
S. aureus IVES 1983 = test: MIC, agar dilution; type: cell-based; conditions: S. aureus IVES 1983; dihydrochloride
Bacteroides spp. = test: MIC range, recent clinical and veterinary isolates; type: cell-based; conditions: Bacteroides, 18 h, read-out: MIC Range
[7] = test system: Bacteroides fragilis group; test: MIC range, recent clinical and veterinary isolates; type: cell-based; conditions: Bacteroides fragilis, 18 h, read-out: MIC Range
Proteus vulgaris = test: MIC range, recent clinical and veterinary isolates; type: cell-based; conditions: 18 h, [18] isolates, read-out: MIC Range
Enterobacter aerogenes = test: MIC range, recent clinical and veterinary isolates; type: cell-based; conditions: Klebsiella aerogenes, 18 h; Enterobacter aerogenes, [10] isolates; read-out: MIC Range
E. coli PRP1 Tet A = test: microbe, parasite or virus in culture; type: cell-based; conditions: dihydrochloride
Moraxella catarrhalis = test: MIC range, recent clinical and veterinary isolates; type: cell-based; conditions: 18 h, [18] isolates, read-out: MIC Range
Providencia spp. = test: MIC range, recent clinical and veterinary isolates; type: cell-based; conditions: 18 h, read-out: MIC Range
S. aureus ROSE (MP) = test: MIC, agar dilution; type: cell-based; conditions: Staphylococcus aureus, 18 h, read-out: MIC
E. coli BAJ9003 IMP MUT = test: microbe, parasite or virus in culture; type: cell-based; conditions: E. coli BAJ9003 IMP MUT
Streptococcus agalactiae = test: MIC range, recent clinical and veterinary isolates; type: cell-based; conditions: 18 h, read-out: MIC Range
[8] = test system: S. aureus UBMS 90-1 Tet M; test: microbe, parasite or virus in culture; type: cell-based; conditions: S. aureus UBMS 90-1 Tet M; dihydrochloride
Enterococcus faecium = test: MIC range, recent clinical and veterinary isolates; type: cell-based; conditions: 18 h, read-out: MIC Range
Xanthamonas maltophilia = test: MIC range, recent clinical and veterinary isolates; type: cell-based; conditions: 18 h, read-out: MIC Range

CN(C)CC(=O)Nc1ccc2c(c1O)C(=O)C1=C(O)[C@]3(O)C(=O)C(C(N)=O)=C(O)[C@@H](N(C)C)C3CC1C2 (stereo partly drawn) [CC, [4S-(4alpha,12aalpha)]-4-(Dimethylamino)-9-[[(dimethylamino)acetyl]amino]-1,4,4a,5,5a,6,11,12a-octahydro-3,10,12,12a-tetrahydroxy-1,11-dioxo-2-naphthacenecarboxamide dihydrochloride]
MIC [1]: 1 µg/mL | MIC [2]: 0.5 µg/mL | MIC (Clostridium spp.): 0.03 to 0.12 µg/mL | MIC (E. coli UBMS 88-1 Tet B): 0.25 µg/mL | MIC [3]: 0.06 to 4 µg/mL | MIC (Listeria monocytogenes): 0.06 to 0.12 µg/mL | MIC [4]: 0.06 µg/mL | MIC (E. coli J3272 Tet D): 0.03 µg/mL | MIC (Morganella morganii): 0.5 to 1 µg/mL | ED50 [5]: 1.6 mg/kg | MIC [6]: 0.12 to 4 µg/mL | MIC (S. aureus UBMS 88-4): 0.03 µg/mL | MIC (S. aureus IVES 1983): 0.5 µg/mL | MIC (Bacteroides spp.): 0.12 to 0.5 µg/mL | MIC [7]: 0.12 to 2 µg/mL | MIC (Proteus vulgaris): 0.06 to 1 µg/mL | MIC (Enterobacter aerogenes): 0.25 to 1 µg/mL | MIC (E. coli PRP1 Tet A): 0.5 µg/mL | MIC (Moraxella catarrhalis): 0.06 to 0.12 µg/mL | MIC (Providencia spp.): 1 to 8 µg/mL | MIC (S. aureus ROSE (MP)): 1 µg/mL | MIC (E. coli BAJ9003 IMP MUT): no growth | MIC (Streptococcus agalactiae): 0.12 to 0.25 µg/mL | MIC [8]: 0.06 µg/mL | MIC (Enterococcus faecium): 0.06 to 0.5 µg/mL | MIC (Xanthamonas maltophilia): 1 to 8 µg/mL
